According to ChEMBL document CHEMBL3792312, “Synthesis and docking studies of pyrazine-thiazolidinone hybrid scaffold targeting dormant tuberculosis” (Bioorg Med Chem Lett, 2016):
≈ marks a conversion by molar mass, not a printed value.

Assays:
[1] = tested on: Mycobacterium tuberculosis; assay: Antitubercular activity against dormant Mycobacterium tuberculosis H37Ra at 30 ug after 12 days by XTT-Menadione assay; assay type: functional
[2] = tested on: Mycobacterium tuberculosis; assay: Antitubercular activity against dormant Mycobacterium tuberculosis H37Ra at 10 ug after 12 days by XTT-Menadione assay; assay type: functional
[3] = tested on: Mycobacterium tuberculosis; assay: Antitubercular activity against dormant Mycobacterium tuberculosis H37Ra at 3 ug after 12 days by XTT-Menadione assay; assay type: functional
[4] = tested on: Mycolicibacterium smegmatis; assay: Antitubercular activity against dormant Mycobacterium smegmatis MC2 155 at 30 ug after 12 days by XTT-Menadione assay; assay type: functional, str. MC2 155
[5] = tested on: Mycolicibacterium smegmatis; assay: Antitubercular activity against dormant Mycobacterium smegmatis MC2 155 at 10 ug after 12 days by XTT-Menadione assay; assay type: functional, str. MC2 155
[6] = tested on: Mycolicibacterium smegmatis; assay: Antitubercular activity against dormant Mycobacterium smegmatis MC2 155 at 3 ug after 12 days by XTT-Menadione assay; assay type: functional, str. MC2 155
Escherichia coli [7] = assay: Antibacterial activity against Escherichia coli at 30 ug after 8 hrs; assay type: functional
Escherichia coli [8] = assay: Antibacterial activity against Escherichia coli at 10 ug after 8 hrs; assay type: functional
Escherichia coli [9] = assay: Antibacterial activity against Escherichia coli at 3 ug after 8 hrs; assay type: functional
Pseudomonas fluorescens [10] = assay: Antibacterial activity against Pseudomonas fluorescens at 30 ug after 8 hrs; assay type: functional
Pseudomonas fluorescens [11] = assay: Antibacterial activity against Pseudomonas fluorescens at 10 ug after 8 hrs; assay type: functional
Pseudomonas fluorescens [12] = assay: Antibacterial activity against Pseudomonas fluorescens at 3 ug after 8 hrs; assay type: functional
Staphylococcus aureus [13] = assay: Antibacterial activity against Staphylococcus aureus at 30 ug after 12 hrs; assay type: functional
Staphylococcus aureus [14] = assay: Antibacterial activity against Staphylococcus aureus at 10 ug after 12 hrs; assay type: functional
Staphylococcus aureus [15] = assay: Antibacterial activity against Staphylococcus aureus at 3 ug after 12 hrs; assay type: functional
Bacillus subtilis [16] = assay: Antibacterial activity against Bacillus subtilis at 30 ug after 12 hrs; assay type: functional
Bacillus subtilis [17] = assay: Antibacterial activity against Bacillus subtilis at 10 ug after 12 hrs; assay type: functional
Bacillus subtilis [18] = assay: Antibacterial activity against Bacillus subtilis at 3 ug after 12 hrs; assay type: functional
[19] = tested on: Mycobacterium tuberculosis; assay: Antitubercular activity against dormant Mycobacterium tuberculosis H37Ra after 12 days by XTT-Menadione assay; assay type: functional, organism-based; details: 288 h

Row | Compound | inhibition (INH) [1] | inhibition (INH) [2] | inhibition (INH) [3] | inhibition (INH) [4] | inhibition (INH) [5] | inhibition (INH) [6] | inhibition (INH) (Escherichia coli [7]) | inhibition (INH) (Escherichia coli [8]) | inhibition (INH) (Escherichia coli [9]) | inhibition (INH) (Pseudomonas fluorescens [10]) | inhibition (INH) (Pseudomonas fluorescens [11]) | inhibition (INH) (Pseudomonas fluorescens [12]) | inhibition (INH) (Staphylococcus aureus [13]) | inhibition (INH) (Staphylococcus aureus [14]) | inhibition (INH) (Staphylococcus aureus [15]) | inhibition (INH) (Bacillus subtilis [16]) | inhibition (INH) (Bacillus subtilis [17]) | inhibition (INH) (Bacillus subtilis [18]) | MIC [19]
1 | Nc1nccnc1C(=O)NN1C(=O)CS[C@H]1c1ccc([N+](=O)[O-])cc1 | 49.69% | 43% | 39.54% | -10.9967% | -28.273% | 34.28% | 37.49% | 57.79% | 42.143% | -20.68% | 24.31% | 37.2% | -21.02% | -46.62% | 16.74% | -19.53% | -1.56% | 0.25% | –
2 | Nc1nccnc1C(=O)NN1C(=O)CSC1c1ccc(Cl)cc1Cl (stereo unspecified) | 63.39% | 68.91% | 64.5% | 33.52% | 55.96% | 42.73% | -146.6% | 38.17% | -35.51% | 7.35% | -6.12% | 14.82% | -52.82% | -26.32% | -35.91% | 3.8% | -11.3% | -13.09% | –
3 | Nc1nccnc1C(=O)NN1C(=O)CSC1c1cccc([N+](=O)[O-])c1 (stereo unspecified) | 64.96% | 62.55% | 63.89% | 50.45% | -86.9278% | 36.91% | 34.42% | 5.212% | -91.9% | 47.95% | 25.83% | 4.173% | -37.97% | -44.93% | 5.486% | 17.93% | -12.6% | -23.1% | –
4 | CN(C)c1ccc(C2SCC(=O)N2NC(=O)c2nccnc2N)cc1 (stereo unspecified) | 69.04% | 66.92% | 63.27% | -93.9118% | 38.8231% | 34.15% | 40.76% | 62.03% | 49.71% | 34.38% | 22.64% | 35.05% | 56.34% | 9.5% | 31.97% | 0.43% | 9.92% | 3.21% | –
5 | Nc1nccnc1C(=O)NN1C(=O)CSC1c1ccc(F)cc1 (stereo unspecified) | 71.96% | 67.84% | 68.04% | 37.72% | -3.707% | 28.7381% | 50.12% | 45% | 41.47% | 42.8% | 40.76% | 27.83% | 8.99% | -50.49% | -14.5% | 3.63% | 21.54% | 14.29% | –
6 | Nc1nccnc1C(=O)NN1C(=O)CSC1c1ccc(Cl)cc1 (stereo unspecified) | 72.85% | 70.78% | 62.36% | 52.67% | 64.17% | 30.65% | 38.45% | -65.92% | -8.913% | -17.98% | 13.99% | 21.22% | -34.8% | 14.12% | 52.81% | 2.22% | -4.06% | -14.42% | –
7 | Nc1nccnc1C(=O)NN1C(=O)CSC1c1ccc(O)cc1 (stereo unspecified) | 70.73% | 69.84% | 65.54% | 13.22% | 27.68% | 36.11% | 15.24% | 14.06% | 56.462% | 43.72% | 16.61% | 30.55% | 43.79% | 40.89% | 25.87% | 4.31% | 16.8% | 13.88% | –
8 | Cc1cnc(C(=O)NN2C(=O)CSC2c2ccccc2)cn1 (stereo unspecified) | 68.38% | 66.69% | 55.04% | 61.3106% | 24.96% | 34.46% | 42.85% | 56.76% | 60.45% | 35.1% | 33.57% | 19.67% | 39.81% | 41.07% | -39.23% | -9.36% | 16.03% | 17.71% | –
9 | Cc1cnc(C(=O)NN2C(=O)CSC2c2ccc(Cl)cc2)cn1 (stereo unspecified) | 62.27% | 61.88% | 60.85% | -19.6759% | 24.29% | -84.5144% | 40.4% | 64.64% | 63.05% | 32.81% | 21.51% | 27.78% | 16.66% | -10.67% | -0.64% | -36.6% | -5.89% | -0.29% | –
10 | C[C@H]1COC2(CCN(c3nc(=O)c4cc(C(F)(F)F)cc([N+](=O)[O-])c4s3)CC2)O1 [BTZ-043] | – | – | – | – | – | – | – | – | – | – | – | – | – | – | – | – | – | – | 3 ng/mL (≈ 6.95 nM)
11 | NNC(=O)c1ccncc1 [ISONIAZID] | – | – | – | – | – | – | – | – | – | – | – | – | – | – | – | – | – | – | 75 ng/mL (≈ 547 nM)
12 | NC(=O)c1cnccn1 [PYRAZINAMIDE] | – | – | – | – | – | – | – | – | – | – | – | – | – | – | – | – | – | – | > 10000 ng/mL
13 | CO[C@H]1/C=C/O[C@@]2(C)Oc3c(C)c(O)c4c(O)c(c(/C=N/N5CCN(C)CC5)c(O)c4c3C2=O)NC(=O)/C(C)=C\C=C\[C@H](C)[C@H](O)[C@@H](C)[C@@H](O)[C@@H](C)[C@H](OC(C)=O)[C@@H]1C [RIFAMPIN] | – | – | – | – | – | – | – | – | – | – | – | – | – | – | – | – | – | – | 2.1 ng/mL (≈ 2.55 nM)
